One test deals with T1, human TLR7 (Homo sapiens, UniProt Q9NYK1).
T1 construct: host or cells: HEK-Blue 293 cells expressing human TLR7
T1 sequence (Q9NYK1 27-1049): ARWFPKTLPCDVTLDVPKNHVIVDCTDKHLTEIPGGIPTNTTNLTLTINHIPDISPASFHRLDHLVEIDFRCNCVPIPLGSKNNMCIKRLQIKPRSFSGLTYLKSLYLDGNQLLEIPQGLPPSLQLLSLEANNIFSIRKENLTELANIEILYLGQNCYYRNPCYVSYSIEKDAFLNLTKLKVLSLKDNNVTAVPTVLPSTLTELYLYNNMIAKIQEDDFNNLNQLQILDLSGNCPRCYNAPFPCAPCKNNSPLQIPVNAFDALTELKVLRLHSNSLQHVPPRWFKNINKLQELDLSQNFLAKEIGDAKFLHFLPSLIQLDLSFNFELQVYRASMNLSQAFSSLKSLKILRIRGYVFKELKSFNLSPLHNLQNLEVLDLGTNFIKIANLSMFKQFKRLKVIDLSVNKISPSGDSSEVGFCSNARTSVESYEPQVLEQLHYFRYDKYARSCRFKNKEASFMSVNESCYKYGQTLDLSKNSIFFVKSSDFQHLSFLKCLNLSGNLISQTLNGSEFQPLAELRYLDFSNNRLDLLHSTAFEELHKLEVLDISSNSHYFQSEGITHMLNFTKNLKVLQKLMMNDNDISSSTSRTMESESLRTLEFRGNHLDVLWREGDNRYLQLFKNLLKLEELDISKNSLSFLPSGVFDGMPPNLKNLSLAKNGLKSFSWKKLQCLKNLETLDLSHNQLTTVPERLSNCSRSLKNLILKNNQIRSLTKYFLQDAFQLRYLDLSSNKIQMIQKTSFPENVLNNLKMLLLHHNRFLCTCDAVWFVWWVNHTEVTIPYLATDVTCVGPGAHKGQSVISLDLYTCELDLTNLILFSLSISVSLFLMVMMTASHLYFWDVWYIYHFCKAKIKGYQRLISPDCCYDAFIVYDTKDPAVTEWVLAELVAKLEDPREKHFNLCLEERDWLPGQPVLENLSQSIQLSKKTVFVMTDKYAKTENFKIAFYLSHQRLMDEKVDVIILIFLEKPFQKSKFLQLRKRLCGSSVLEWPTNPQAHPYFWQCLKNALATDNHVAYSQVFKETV
As to the kind of experiment: Cell-based TLR 7/8 assay, HEK-Blue TLR7 cells (SEAP reporter). The settings on record: based on Compound concentration only; Compounds formulated as SNEs; read-out: huTLR7 EC50 (converted). How it is done:
(§1) HEK-Blue™ TLR7 and TLR8 cells (InvivoGen) were designed to assess the stimulation of TLR7 and TLR8 by monitoring the activation of NF-κB and AP-1. Compound B-1-SNE samples were diluted 1:2 across an 8-point titration in diluent buffer histidine/PS-20 in a sterile V-bottom plate. 20 μL of samples were transferred to corresponding wells of two flat bottom assay plates. Media was aspirated from HEK-Blue™ human TLR 7 and TLR 8 cells (T-75 flasks) and gently rinsed with pre-warmed (37° C.) DPBS for a total volume of 5 mL/flask. The DPBS was gently removed from the cells and cells were gently manually dislodged and resuspended in 2 mL of DPBS. Cell assay suspensions were then prepared at approximately 2.2×10^5 cells per mL of HEK-Blue™ detection medium (InvivoGen). 180 μL of cell suspension in detection medium was added to each well of the two flat bottom assay plates containing the diluted Compound B-1-SNE samples for a final dilution of sample equaling 1:10 (180 μL of cell suspension in detection medium and 20 μL of sample). The cells were then incubated at 37° C. in 5% CO2 for 20 hrs. The reporter gene, NF-Kb, induces the production of secreted embryonic alkaline phosphatase (SEAP) when stimulated and can be monitored using the vendor supplied SEAP detection kit. SEAP colorimetric changes were read at an absorbance of 640 nm using a SpectroMax Stakmax plate reader. […] EC50 values were calculated based on total Compound B-1-SNE concentration using GraphPad Prism Software and analyzed using agonist vs. response variable slope (four parameters) least squares fit.
(§2) Further to the description in Example 10, a cell-based activation system was used to assess activity of the Compound-formulated nanoemulsion systems, prepared as described in examples, supra. HEK-Blue™ TLR7 and TLR8 cells (InvivoGen) were designed to assess the stimulation of TLR7 and TLR8 by monitoring the activation of NF-κB and AP-1. Compound-SNE samples were diluted 1:2 across an 8-point titration in diluent buffer histidine/PS-20 in a sterile V-bottom plate. 20 μL of samples were transferred to corresponding wells of two flat bottom assay plates. Media was aspirated from HEK-Blue™ human TLR 7 and TLR 8 cells (T-75 flasks) and gently rinsed with pre-warmed (37° C.) DPBS for a total volume of 5 mL/flask. The DPBS was gently removed from the cells and cells were gently manually dislodged and resuspended in 2 mL of DPBS. Cell assay suspensions were then prepared at approximately 2.2×10^5 cells per mL of HEK-Blue™ detection medium (InvivoGen). 180 μL of cell suspension in detection medium was added to each well of the two flat bottom assay plates containing the diluted Compound-SNE samples for a final dilution of sample equaling 1:10 (180 μL of cell suspension in detection medium and 20 μL of sample). The cells were then incubated at 37° C. in 5% CO2 for 20 hrs. The reporter gene, NF-Kb, induces the production of secreted embryonic alkaline phosphatase (SLAP) when stimulated and can be monitored using the vendor supplied SLAP detection kit. SLAP colorimetric changes were read at an absorbance of 640 nm using a SpectroMax Stakmax plate reader. EC50s were calculated based on Compound concentration only, not total Compound-SNE concentration (Table 6) using GraphPad Prism Software and analyzed using agonist vs. response variable slope (four parameters) least squares fit.

In the next test the target is T2, human TLR8 (Homo sapiens, UniProt Q9NR97).
T2 construct: host or cells: HEK-Blue 293 cells expressing human TLR8
T2 sequence (Q9NR97 27-1041): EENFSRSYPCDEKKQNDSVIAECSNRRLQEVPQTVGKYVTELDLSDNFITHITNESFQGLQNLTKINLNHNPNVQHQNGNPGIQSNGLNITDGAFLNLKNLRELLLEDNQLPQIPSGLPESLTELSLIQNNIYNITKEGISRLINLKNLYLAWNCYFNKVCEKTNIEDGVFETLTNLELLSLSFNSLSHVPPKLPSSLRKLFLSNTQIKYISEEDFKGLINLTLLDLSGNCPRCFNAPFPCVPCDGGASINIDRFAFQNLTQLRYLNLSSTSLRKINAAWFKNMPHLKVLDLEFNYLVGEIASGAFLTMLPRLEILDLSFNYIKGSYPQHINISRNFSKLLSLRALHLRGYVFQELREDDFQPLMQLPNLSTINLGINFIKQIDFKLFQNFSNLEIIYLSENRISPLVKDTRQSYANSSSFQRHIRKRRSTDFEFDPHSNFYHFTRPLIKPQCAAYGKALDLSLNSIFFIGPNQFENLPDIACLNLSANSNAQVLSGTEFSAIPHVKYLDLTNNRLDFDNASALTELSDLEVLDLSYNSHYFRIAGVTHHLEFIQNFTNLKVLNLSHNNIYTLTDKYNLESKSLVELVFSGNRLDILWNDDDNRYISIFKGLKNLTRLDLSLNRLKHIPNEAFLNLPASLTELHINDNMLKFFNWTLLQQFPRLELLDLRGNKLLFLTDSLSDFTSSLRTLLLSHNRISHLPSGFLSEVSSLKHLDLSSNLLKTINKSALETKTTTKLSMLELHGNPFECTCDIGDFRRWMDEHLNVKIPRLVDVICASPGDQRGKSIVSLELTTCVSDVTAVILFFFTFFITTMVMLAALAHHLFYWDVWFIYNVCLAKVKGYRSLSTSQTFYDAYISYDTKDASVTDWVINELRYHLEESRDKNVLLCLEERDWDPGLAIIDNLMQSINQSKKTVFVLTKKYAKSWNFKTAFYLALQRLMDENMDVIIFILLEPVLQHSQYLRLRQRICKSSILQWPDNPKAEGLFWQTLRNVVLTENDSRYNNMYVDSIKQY
In words: Cell-based TLR 7/8 assay, HEK-Blue TLR8 cells (SEAP reporter). The note with it: based on Compound concentration only; Compounds formulated as SNEs; read-out: huTLR8 EC50 (converted). How it is done: as §1, §2

The record followed here is patent US20240390471A1, “COMPOUNDS AND ADJUVANT FORMULATIONS USEFUL IN PNEUMOCOCCAL VACCINES” (Merck Sharp & Dohme LLC, priority 2023, published 2024).

Structures are written as SMILES.

By EC50 is commonly meant the concentration that produces a half-maximal response.

For the compound `CCCCCCCCCCCCCCCCCC(=O)NCCCCC(=O)N1CCN(c2cc(OC)c(Cn3cc4nc(N)nc(NCCCC)c4n3)c(OC)c2)CC1` [Compound A-1, N-(5-(4-(4-((5-amino-7-(butylamino)-2H-pyrazolo[4,3-d]pyrimidin-2-yl)methyl)-3,5-dimethoxyphenyl)piperazin-1-yl)-5-oxopentyl)stearamide], the EC50 was 14900 nM at human TLR7 and 5370 nM at human TLR8.

Take `CCCCCCCCCCCCCCCCCC(=O)NCCCCC(=O)N1CCN(c2cc(OC)c(Cn3cc4nc(N)nc(N[C@H](CO)CCC)c4n3)c(OC)c2)CC1` [Compound A-2, (S)—N-(5-(4-(4-((5-amino-7-((1-hydroxypentan-2-yl)amino)-2H-pyrazolo[4,3-d]pyrimidin-2-yl)methyl)-3,5-dimethoxyphenyl)piperazin-1-yl)-5-oxopentyl)stearamide]: the EC50 on human TLR7 is 7530 nM; on human TLR8, 454 nM.

Take `CCCCCCCCCCCCCCCCCC(=O)NCCCCC(=O)N1CCN(c2ccc(Cn3cc4nc(N)nc(NCCCC)c4n3)c(OC)c2)CC1` [Compound B-1, N-(5-(4-(4-((5-amino-7-(butylamino)-2H-pyrazolo[4,3-d]pyrimidin-2-yl)methyl)-3-methoxyphenyl)piperazin-1-yl)-5-oxopentyl)stearamide]: the figures for the EC50 at human TLR7 and at human TLR8 were 837 nM and 554 nM, respectively.

With `CCCCCCCCCCCCCC(=O)NCCCCC(=O)N1CCN(c2ccc(Cn3cc4nc(N)nc(NCCCC)c4n3)c(OC)c2)CC1` [Compound B-2, N-(5-(4-(4-((5-amino-7-(butylamino)-2H-pyrazolo[4,3-d]pyrimidin-2-yl)methyl)-3-methoxyphenyl)piperazin-1-yl)-5-oxopentyl)tetradecanamide], the half-maximal effective concentration (EC50) at human TLR7 is 208 nM; at human TLR8, 306 nM.

As for `CCCCCCCC/C=C\CCCCCCCC(=O)NCCCCC(=O)N1CCN(c2ccc(Cn3cc4nc(N)nc(NCCCC)c4n3)c(OC)c2)CC1` [Compound B-3, N-(5-(4-(4-((5-amino-7-(butylamino)-2H-pyrazolo[4,3-d]pyrimidin-2-yl)methyl)-3-methoxyphenyl)piperazin-1-yl)-5-oxopentyl)oleamide], the EC50 at human TLR7 is 155 nM; on human TLR8, 129 nM.

Take `CCCCC/C=C\C/C=C\CCCCCCCC(=O)NCCCCC(=O)N1CCN(c2ccc(Cn3cc4nc(N)nc(NCCCC)c4n3)c(OC)c2)CC1` [Compound B-4, (9Z,12Z)—N-(5-(4-(4-((5-amino-7-(butylamino)-2H-pyrazolo[4,3-d]pyrimidin-2-yl)methyl)-3-methoxyphenyl)piperazin-1-yl)-5-oxopentyl)octadeca-9,12-dienamide]: the EC50 at human TLR7 and at human TLR8 was 389 nM each time.

`CCCCCCCCCCCCCCCCCC(=O)NCCCCC(=O)N1CCCN(c2ccc(Cn3cc4nc(N)nc(NCCCC)c4n3)c(OC)c2)CC1` [Compound B-5, N-(5-(4-(4-((5-amino-7-(butylamino)-2H-pyrazolo[4,3-d]pyrimidin-2-yl)methyl)-3-methoxyphenyl)-1,4-diazepan-1-yl)-5-oxopentyl)stearamide]: the values for the EC50 at human TLR7 and at human TLR8 were 13400 nM and 4210 nM, respectively.

With `CCCCCCCCCCCCCCCCCC(=O)NCCCCC(=O)N1CCC(c2ccc(Cn3cc4nc(N)nc(NCCCC)c4n3)c(OC)c2)CC1` [Compound B-6, N-(5-(4-(4-((5-amino-7-(butylamino)-2H-pyrazolo[4,3-d]pyrimidin-2-yl)methyl)-3-methoxyphenyl)piperidin-1-yl)-5-oxopentyl)stearamide], the EC50 on human TLR7 was 4190 nM; at human TLR8, 2590 nM.

For `CCCCCCCCCCCCCCCCCC(=O)NCCCCC(=O)N1CC(c2ccc(Cn3cc4nc(N)nc(NCCCC)c4n3)c(OC)c2)C1` [Compound B-7, N-(5-(3-(4-((5-amino-7-(butylamino)-2H-pyrazolo[4,3-d]pyrimidin-2-yl)methyl)-3-methoxyphenyl)azetidin-1-yl)-5-oxopentyl)stearamide], the EC50 on human TLR7 was 8430 nM; on human TLR8, 3390 nM.
